In ChEMBL document CHEMBL5360557 (Eur J Med Chem, 2023):

Tests used:
Acetylcholinesterase = Acetylcholinesterase (Homo sapiens, UniProt P22303); assay: Inhibition of recombinant human AChE using acetylthiocholine iodide as substrate preincubated with enzyme for 5 mins followed by substrate addition and measured after 1 min by Ellman's method
Cholinesterase [1] = target: T1, Cholinesterase (Homo sapiens, UniProt P06276); assay: Inhibition of recombinant human BuChE using butyrylthiocholine iodide as substrate at 10 uM preincubated with enzyme for 5 mins followed by substrate addition and measured after 1 min by Ellman's method relative to control; details: time 6.0 min
T1 sequence (P06276 whole entry): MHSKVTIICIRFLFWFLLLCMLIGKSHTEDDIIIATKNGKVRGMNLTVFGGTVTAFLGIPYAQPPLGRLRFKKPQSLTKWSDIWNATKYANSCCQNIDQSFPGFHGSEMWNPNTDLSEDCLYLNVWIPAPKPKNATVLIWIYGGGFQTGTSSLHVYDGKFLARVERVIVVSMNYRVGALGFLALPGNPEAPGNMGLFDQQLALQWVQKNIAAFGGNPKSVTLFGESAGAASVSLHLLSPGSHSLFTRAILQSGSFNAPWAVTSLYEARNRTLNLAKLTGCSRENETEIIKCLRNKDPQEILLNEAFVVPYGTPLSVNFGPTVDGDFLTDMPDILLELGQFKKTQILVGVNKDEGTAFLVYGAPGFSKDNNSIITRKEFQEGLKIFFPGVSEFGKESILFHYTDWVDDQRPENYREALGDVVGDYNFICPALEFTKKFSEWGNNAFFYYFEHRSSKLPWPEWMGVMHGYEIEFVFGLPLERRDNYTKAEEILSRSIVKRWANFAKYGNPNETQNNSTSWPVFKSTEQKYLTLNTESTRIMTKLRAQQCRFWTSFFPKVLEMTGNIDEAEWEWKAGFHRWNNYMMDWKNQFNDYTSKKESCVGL

Cholinesterase [2] = target: T1, Cholinesterase; assay: Inhibition of recombinant human BuChE using butyrylthiocholine iodide as substrate preincubated with enzyme for 5 mins followed by substrate addition and measured after 1 min by Ellman's method
[3] = Cytotoxicity against human HepG2 cells assessed as inhibition of cell growth incubated for 24 hrs by MTT assay; assay type: toxicity, cell-based
in vitro = details: PAMPA
Description: Permeability of the compound incubated for 3 to 6 hrs by PAMPA-BBB assay

[4] = Cytotoxicity against human SH-SY5Y cells assessed as inhibition of cell growth incubated for 24 hrs by MTT assay; assay type: toxicity, cell-based

Chain of Acetylcholinesterase (P22303 whole entry): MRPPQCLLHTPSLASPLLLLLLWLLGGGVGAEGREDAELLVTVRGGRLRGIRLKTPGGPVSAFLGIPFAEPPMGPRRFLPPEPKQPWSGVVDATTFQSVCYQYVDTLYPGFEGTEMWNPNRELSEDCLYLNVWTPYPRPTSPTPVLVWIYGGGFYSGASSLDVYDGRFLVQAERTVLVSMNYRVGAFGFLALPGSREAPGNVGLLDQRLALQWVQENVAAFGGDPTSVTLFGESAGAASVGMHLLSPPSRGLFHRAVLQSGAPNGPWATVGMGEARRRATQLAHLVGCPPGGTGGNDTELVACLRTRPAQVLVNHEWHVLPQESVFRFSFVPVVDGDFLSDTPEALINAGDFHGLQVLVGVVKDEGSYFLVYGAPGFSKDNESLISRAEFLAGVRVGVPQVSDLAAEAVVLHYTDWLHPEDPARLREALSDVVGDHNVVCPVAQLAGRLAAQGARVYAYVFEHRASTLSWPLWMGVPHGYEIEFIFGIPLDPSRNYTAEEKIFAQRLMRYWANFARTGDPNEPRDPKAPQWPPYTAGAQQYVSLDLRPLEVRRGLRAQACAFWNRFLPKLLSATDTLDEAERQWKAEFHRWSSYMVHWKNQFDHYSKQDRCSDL

Compound | IC50 (Acetylcholinesterase) | inhibition (Cholinesterase [1]) | IC50 (Cholinesterase [2]) | IC50 at 24 h [3] | Papp (in vitro) | IC50 at 24 h [4]
COc1cccc(CN(C)CCCc2ccccc2)c1OCc1ccccc1 | > 10 µM | 97% | 0.1 µM | – | – | –
CCCN(CCCc1ccc(F)cc1)Cc1cccc(OC)c1OCc1ccccc1 | > 10 µM | 96% | 0.1 µM | 32 µM | 61 ×10⁻⁶ cm/s | 170 µM
COc1cccc(CNCCCCc2ccccc2)c1OCc1ccccc1 | > 10 µM | 94% | 0.2 µM | – | – | –
C#CCN(CCc1ccc(OC)cc1)Cc1cccc(OC)c1OCc1ccccc1 | > 10 µM | 66% | 1.3 µM | – | – | –
C=CCN(CCc1ccc(OC)cc1)Cc1cccc(OC)c1OCc1ccccc1 | > 10 µM | 72% | 2 µM | – | – | –
COc1cccc(CCNCc2cccc(OC)c2OCc2ccccc2)c1 | > 10 µM | 77% | 2.5 µM | – | – | –
CCCN(CCc1ccccc1OC)Cc1cccc(OC)c1OCc1ccccc1 | > 10 µM | 92% | 0.7 µM | – | – | –
C#CCOc1ccc(CCN(CC#C)Cc2cccc(OC)c2OCc2ccccc2)cc1 | > 10 µM | 72% | 0.2 µM | – | – | –
COc1cccc(CNCc2ccccc2)c1OCc1ccccc1 | > 10 µM | 78% | 1.5 µM | – | – | –
CCCCCCN(CCCc1ccccc1)Cc1cccc(OC)c1OCc1ccccc1 | > 10 µM | 95% | 0.04 µM | 106 µM | 9 ×10⁻⁶ cm/s | 110 µM
C=CCN(CCc1ccc(O)cc1)Cc1cccc(OC)c1OCc1ccccc1 | > 10 µM | 96% | 0.3 µM | – | – | –
CO/N=C(\C(=O)N[C@@H]1C(=O)N2C(C(=O)O)=C(COC(N)=O)CS[C@H]12)c1ccco1 [CEFUROXIME] | – | – | – | – | 0.6 ×10⁻⁶ cm/s | –
CCCN(CCCc1ccccc1O)Cc1cccc(OC)c1OCc1ccccc1 | > 10 µM | 95% | 0.22 µM | – | – | –
COc1ccc(CCN(C)Cc2cccc(OC)c2OCc2ccccc2)cc1 | > 10 µM | 76% | 3.2 µM | – | – | –
C#CCN(CCc1ccccc1OC)Cc1cccc(OC)c1OCc1ccccc1 | > 10 µM | 35% | > 10 µM | – | – | –
COc1ccccc1CCN(C)Cc1cccc(OC)c1OCc1ccccc1 | > 10 µM | 85% | 0.8 µM | – | – | –
COc1cccc(CNCC(C)c2ccccc2)c1OCc1ccccc1 (stereo not drawn) | > 10 µM | 96% | 0.16 µM | – | – | –
COc1cccc(CNC(C)CCc2ccccc2)c1OCc1ccccc1 (stereo not drawn) | > 10 µM | 97% | 0.13 µM | – | – | –
CCCN(CCc1ccc(O)cc1)Cc1cccc(OC)c1OCc1ccccc1 | > 10 µM | 95% | 0.09 µM | 43 µM | 14 ×10⁻⁶ cm/s | 44 µM
COc1cccc(CN(CCCCc2ccccc2)CCCC(C)C)c1OCc1ccccc1 | > 10 µM | 87% | 0.29 µM | – | – | –
CCCCCCN(CCCCc1ccccc1)Cc1cccc(OC)c1OCc1ccccc1 | > 10 µM | 78% | 0.7 µM | – | – | –
CCCN(CCc1ccccc1)Cc1cccc(OC)c1OCc1ccccc1 | > 10 µM | 91% | 0.5 µM | – | – | –
CCCN(CCCc1cccc(F)c1)Cc1cccc(OC)c1OCc1ccccc1 | > 10 µM | 97% | 0.039 µM | 41 µM | 27 ×10⁻⁶ cm/s | 123 µM
C=CCN(CCc1ccccc1)Cc1cccc(OC)c1OCc1ccccc1 | > 10 µM | 88% | 0.4 µM | – | – | –
CCCN(CCc1ccc(OC)cc1)Cc1cccc(OC)c1OCc1ccccc1 | > 10 µM | 82% | 1.4 µM | – | – | –

Compound | IC50 (Acetylcholinesterase) | inhibition (Cholinesterase [1]) | IC50 (Cholinesterase [2]) | IC50 at 24 h [3] | Papp (in vitro) | IC50 at 24 h [4]
C#CCN(CCc1cccc(OC)c1)Cc1cccc(OC)c1OCc1ccccc1 | > 10 µM | 28% | > 10 µM | – | – | –
CCN(CCc1cccc(OC)c1)Cc1cccc(OC)c1OCc1ccccc1 | > 10 µM | 88% | 0.9 µM | – | – | –
C#CCN(CCc1ccc(O)cc1)Cc1cccc(OC)c1OCc1ccccc1 | > 10 µM | 78% | 1.9 µM | – | – | –
COc1ccccc1CCNCc1cccc(OC)c1OCc1ccccc1 | > 10 µM | 88% | 0.8 µM | – | – | –
C=CCOc1ccc(CCN(CC=C)Cc2cccc(OC)c2OCc2ccccc2)cc1 | > 10 µM | 71% | 1.3 µM | – | – | –
C#CCN(CCCc1ccccc1)Cc1cccc(OC)c1OCc1ccccc1 | > 10 µM | 76% | 0.23 µM | – | – | –
COc1ccc(CCNCc2cccc(OC)c2OCc2ccccc2)cc1 | > 10 µM | 94% | 0.4 µM | – | – | –
CCN(CCc1ccccc1OC)Cc1cccc(OC)c1OCc1ccccc1 | > 10 µM | 94% | 0.7 µM | – | – | –
COc1cccc(/C=N/CCc2ccc(O)cc2)c1OCc1ccccc1 | > 10 µM | 48% | 8 µM | – | – | –
CCN(CCc1ccc(OC)cc1)Cc1cccc(OC)c1OCc1ccccc1 | > 10 µM | 77% | 2.5 µM | – | – | –
C=CCN(CCc1ccccc1OC)Cc1cccc(OC)c1OCc1ccccc1 | > 10 µM | 90% | 0.3 µM | – | – | –
CCN(CCCc1ccccc1)Cc1cccc(OC)c1OCc1ccccc1 | > 10 µM | 98% | 0.06 µM | 23 µM | – | 34 µM
C=CCN(CCc1cccc(OC)c1)Cc1cccc(OC)c1OCc1ccccc1 | > 10 µM | 76% | 1.5 µM | – | – | –
COc1cccc(CNCCCc2ccccc2)c1OCc1ccccc1 | > 10 µM | 97% | 0.09 µM | – | 21 ×10⁻⁶ cm/s | 8.9 µM
COc1ccc2c3c1O[C@H]1C[C@@H](O)C=C[C@@]31CCN(C)C2 [GALANTAMINE] | – | – | – | 4200 µM | – | 4700 µM
COc1cccc(CNCCc2ccccc2)c1OCc1ccccc1 | > 10 µM | 93% | 0.4 µM | – | – | –
C#CCN(CCc1ccccc1)Cc1cccc(OC)c1OCc1ccccc1 | > 10 µM | 46% | > 10 µM | – | – | –
CCN(CCc1ccccc1)Cc1cccc(OC)c1OCc1ccccc1 | > 10 µM | 91% | 0.6 µM | – | – | –
C#CCN(CCc1ccc(OCC=C)cc1)Cc1cccc(OC)c1OCc1ccccc1 | > 10 µM | 42% | > 10 µM | – | – | –
CCN(CCc1ccc(O)cc1)Cc1cccc(OC)c1OCc1ccccc1 | > 10 µM | 94% | 0.3 µM | – | – | –
CCCCCCCCCCCCCCN(CCCCc1ccccc1)Cc1cccc(OC)c1OCc1ccccc1 | > 10 µM | 25% | > 10 µM | – | – | –
CCOc1ccc(CCN(CC)Cc2cccc(OC)c2OCc2ccccc2)cc1 | > 10 µM | 84% | 0.9 µM | – | – | –
CCCN(CCc1cccc(OC)c1)Cc1cccc(OC)c1OCc1ccccc1 | > 10 µM | 89% | 0.9 µM | – | – | –
C#CCOc1ccc(CCN(CC=C)Cc2cccc(OC)c2OCc2ccccc2)cc1 | > 10 µM | 64% | 2.2 µM | – | – | –
CCCN(CCCc1cccc(O)c1)Cc1cccc(OC)c1OCc1ccccc1 | > 10 µM | 96% | 0.16 µM | – | – | –
